Test results taken from patent US9988400B2 (Genentech, Inc., priority 2013, dated 2018).

Biological target: T1, HEK cells stably transfected with tetracycline inducible hNR1 and hNR2A (Homo sapiens, UniProt Q05586+Q12879)
T1 construct: expressed in transfected cells; host or cells: HEK cells, stably transfected, tetracycline/doxycycline inducible
Test: Assay 1: Cell-Based Assay, cytosolic calcium response to positive allosteric modulators (with 30 μM glycine and 300 nM L-glutamate, EC30)
Details: for Max %: responses scaled relative to 100 μM L-glutamate maximal response (100%) and 0 μM L-glutamate (0%); for EC50: cytosolic calcium response, with 30 μM glycine and 300 nM L-glutamate (EC30), — = no plateau was reached
Procedure, shortened: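 Cells induced 24 h with 7.5 μg mL^−1 doxycycline plus 500 μM (+)-ketamine, loaded 60 min at 37 °C with calcium dye in Mg-free HBSS (1.8 mM Ca, probenecid, 10 μM (+)-ketamine, pH 7.15). Peak RFU over 5 min after compound addition, scaled to 100 μM L-glutamate (100%) and 0 μM (0%); four-parameter Hill fit for EC50, max % if no plateau.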

T1 sequence (Q12879 23-1464, other chains not shown): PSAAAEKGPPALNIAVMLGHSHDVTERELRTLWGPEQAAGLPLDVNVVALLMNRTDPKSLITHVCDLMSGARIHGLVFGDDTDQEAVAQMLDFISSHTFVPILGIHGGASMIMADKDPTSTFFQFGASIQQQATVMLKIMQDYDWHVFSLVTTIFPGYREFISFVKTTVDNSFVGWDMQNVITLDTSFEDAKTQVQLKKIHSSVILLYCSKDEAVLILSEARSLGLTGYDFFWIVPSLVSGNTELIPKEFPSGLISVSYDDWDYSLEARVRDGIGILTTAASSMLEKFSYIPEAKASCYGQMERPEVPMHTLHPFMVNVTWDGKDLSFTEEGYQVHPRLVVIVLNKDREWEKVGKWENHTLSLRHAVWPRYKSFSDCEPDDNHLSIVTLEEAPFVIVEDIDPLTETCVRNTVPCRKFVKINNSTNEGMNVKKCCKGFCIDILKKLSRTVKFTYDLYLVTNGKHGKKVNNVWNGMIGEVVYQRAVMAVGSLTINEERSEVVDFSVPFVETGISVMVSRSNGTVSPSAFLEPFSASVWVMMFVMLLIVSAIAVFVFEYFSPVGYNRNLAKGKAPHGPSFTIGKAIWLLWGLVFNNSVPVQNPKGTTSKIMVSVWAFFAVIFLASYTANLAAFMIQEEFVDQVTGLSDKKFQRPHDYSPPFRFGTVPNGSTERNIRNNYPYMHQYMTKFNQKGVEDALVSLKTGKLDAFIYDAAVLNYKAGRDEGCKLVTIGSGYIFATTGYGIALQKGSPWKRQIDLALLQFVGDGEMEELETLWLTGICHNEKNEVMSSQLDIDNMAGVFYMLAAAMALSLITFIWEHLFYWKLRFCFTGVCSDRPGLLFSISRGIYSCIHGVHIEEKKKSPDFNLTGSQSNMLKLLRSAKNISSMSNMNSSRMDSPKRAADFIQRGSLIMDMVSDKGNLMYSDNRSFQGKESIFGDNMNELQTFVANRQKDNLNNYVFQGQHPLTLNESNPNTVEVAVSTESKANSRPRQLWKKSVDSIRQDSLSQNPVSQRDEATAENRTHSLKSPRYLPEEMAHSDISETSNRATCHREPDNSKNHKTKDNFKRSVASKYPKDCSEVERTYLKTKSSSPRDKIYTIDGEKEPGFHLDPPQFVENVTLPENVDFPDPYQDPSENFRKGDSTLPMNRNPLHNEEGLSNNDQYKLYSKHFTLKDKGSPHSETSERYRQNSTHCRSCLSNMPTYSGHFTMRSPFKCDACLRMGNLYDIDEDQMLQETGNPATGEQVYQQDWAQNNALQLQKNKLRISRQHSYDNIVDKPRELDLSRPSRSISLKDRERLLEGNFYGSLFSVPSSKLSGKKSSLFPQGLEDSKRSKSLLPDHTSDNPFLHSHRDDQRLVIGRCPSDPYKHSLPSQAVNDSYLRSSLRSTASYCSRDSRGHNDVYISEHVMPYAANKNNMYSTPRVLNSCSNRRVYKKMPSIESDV

| Max % (Table 2) | EC50 (Table 3) | EC50 (Table 2) | Compound |
| --- | --- | --- | --- |
| 96.8% | – | – | CCN(Cc1cc(=O)n2c(-c3ccc(=O)[nH]c3)c(C)sc2n1)c1ccc(F)cc1 [Example 5.50, 7-((ethyl(4-fluorophenyl)amino)methyl)-2-methyl-3-(6-oxo-1,6-dihydropyridin-3-yl)-5H-thiazolo[3,2-a]pyrimidin-5-one] |
| – | 0.0787 µM | – | CCNC(=O)c1c(C)sc2nc(CN(CC)c3ccc(F)cc3)cc(=O)n12 [compound 82, N-ethyl-7-[(N-ethyl-4-fluoro-anilino)methyl]-2-methyl-5-oxo-thiazolo[3,2-a]pyrimidine-3-carboxamide] |
| – | 0.779 µM | – | Cc1sc2nc(CN(C)c3ccc(Cl)cn3)cc(=O)n2c1C1CC1C#N (stereo not drawn) [compound 190, 2-[7-[[(5-chloro-2-pyridyl)-methyl-amino]methyl]-2-methyl-5-oxo-thiazolo[3,2-a]pyrimidin-3-yl]cyclopropanecarbonitrile] |
| – | 7.88 µM | – | CCNC(=O)c1c(C)sc2nc(Cn3nc(Cl)cc3C)cc(=O)n12 [compound 21, 7-[(3-chloro-5-methyl-pyrazol-1-yl)methyl]-N-ethyl-2-methyl-5-oxo-thiazolo[3,2-a]pyrimidine-3-carboxamide] |
| 41% | – | – | CNC(=O)c1c(C)sc2nc(Cc3ccc(Cl)cc3F)cc(=O)n12 [Example 21.56, 7-[(4-chloro-2-fluoro-phenyl)methyl]-N,2-dimethyl-5-oxo-thiazolo[3,2-a]pyrimidine-3-carboxamide] |
| – | 33.7 µM | – | CCNC(=O)c1c(C)sc2nc(Cc3c(F)ccc(F)c3F)cc(=O)n12 [compound 2, N-ethyl-2-methyl-5-oxo-7-[(2,3,6-trifluorophenyl)methyl]thiazolo[3,2-a]pyrimidine-3-carboxamide] |
| – | 0.182 µM | – | N#CC1CC1c1c(Cl)sc2nc(Cn3nc(Cl)cc3C(F)(F)F)cc(=O)n12 (stereo not drawn) [compound 268, 2-[2-chloro-7-[[3-chloro-5-(trifluoromethyl)pyrazol-1-yl]methyl]-5-oxo-thiazolo[3,2-a]pyrimidin-3-yl]cyclopropanecarbonitrile] |
| 44.6% | – | – | CCNC(=O)c1c(C(F)(F)F)sc2nc(COc3ccc(F)cc3)cc(=O)n12 [Example 3.4, N-Ethyl-7-(4-fluorophenoxymethyl)-5-oxo-2-(trifluoromethyl)-5H-[1,3]thiazolo[3,2-a]pyrimidine-3-carboxamide] |
| – | 61.3 µM | – | O=c1cc(Cn2nc(C(F)(F)F)cc2Cl)nc2sc(C(F)(F)F)c(N3CC(F)(F)C3)n12 [compound 231, 7-[[5-chloro-3-(trifluoromethyl)pyrazol-1-yl]methyl]-3-(3,3-difluoroazetidin-1-yl)-2-(trifluoromethyl)thiazolo[3,2-a]pyrimidin-5-one] |
| – | 0.864 µM | – | O=c1cc(Cn2nc(C(F)(F)F)cc2Cl)nc2sc(C(F)(F)F)c(OCC(F)(F)F)n12 [compound 243, 7-[[5-chloro-3-(trifluoromethyl)pyrazol-1-yl]methyl]-3-(2,2,2-trifluoroethoxy)-2-(trifluoromethyl)thiazolo[3,2-a]pyrimidin-5-one] |
| – | 6.53 µM | – | Cc1sc2nc(Cn3nc(C4CC4)cc3C(F)(F)F)cc(=O)n2c1C(=O)NCC(F)(F)F [compound 58, 7-[[3-cyclopropyl-5-(trifluoromethyl)pyrazol-1-yl]methyl]-2-methyl-5-oxo-N-(2,2,2-trifluoroethyl)thiazolo[3,2-a]pyrimidine-3-carboxamide] |
| – | 3.22 µM | – | CCNC(=O)c1c(Cl)sc2nc(Cc3cccc(C(F)(F)F)c3F)cc(=O)n12 [compound 60, 2-chloro-N-ethyl-7-[[2-fluoro-3-(trifluoromethyl)phenyl]methyl]-5-oxo-thiazolo[3,2-a]pyrimidine-3-carboxamide] |
| 127% | – | 23.4 µM | CCN(Cc1cc(=O)n2c(CN(C)C)c(C)sc2n1)c1ccc(F)cc1 [Example 10.7, 3-[(dimethylamino)methyl]-7-[[ethyl(4-fluorophenyl)amino]methyl]-2-methyl-5H-[1,3]thiazolo[3,2-a]pyrimidin-5-one] |
| 49.2% | – | – | Cc1sc2nc(COc3ccc(F)cc3)cc(=O)n2c1C1CC1C(C)(C)O (stereo not drawn) [Example 4.34, 7-(4-Fluorophenoxymethyl)-3-[2-(2-hydroxypropan-2-yl)cyclopropyl]-2-methyl-5H-[1.3]thiazolo[3,2-a]pyrimidin-5-one] |
| 127% | – | 30.6 µM | Cc1sc2nc(COc3ccccc3F)cc(=O)n2c1[C@@H]1C[C@H]1CO (relative stereo) [Example 4.12, 7-((2-fluorophenoxy)methyl)-3-(trans-2-(hydroxymethyl)cyclopropyl)-2-methyl-5H-thiazolo[3,2-a]pyrimidin-5-one] |
| 114% | – | 5.2 µM | CCNC(=O)c1c(C)sc2nc(Cc3cccc(C(F)F)c3F)cc(=O)n12 [Example 21.20, 7-[[3-(difluoromethyl)-2-fluoro-phenyl]methyl]-N-ethyl-2-methyl-5-oxo-thiazolo[3,2-a]pyrimidine-3-carboxamide] |
| – | 0.0074 µM | – | N#CC1CC1c1c(C(F)(F)F)sc2nc(Cn3nc(C(F)(F)F)cc3Cl)cc(=O)n12 (single isomer, unassigned) [compound 207] |
| – | 0.471 µM | – | Cc1sc2nc(Cc3cccc(C#N)c3F)cc(=O)n2c1C1CC1C (stereo not drawn) [compound 10, 2-fluoro-3-[[2-methyl-3-(2-methylcyclopropyl)-5-oxo-thiazolo[3,2-a]pyrimidin-7-yl]methyl]benzonitrile] |
| 145% | – | 7.4 µM | Cc1sc2nc(Cc3cccc(C#N)c3)c(F)c(=O)n2c1C1CC1CO (stereo not drawn) [Example 20.2, 3-((6-fluoro-3-(2-(hydroxymethyl)cyclopropyl)-2-methyl-5-oxo-5H-thiazolo[3,2-a]pyrimidin-7-yl)methyl)benzonitrile] |
| 102% | – | 34.5 µM | CNC(=O)c1c(C)sc2nc(Cc3cccc(CO)c3F)cc(=O)n12 [Example 21.24, 7-[[2-fluoro-3-(hydroxymethyl)phenyl]methyl]-N,2-dimethyl-5-oxo-thiazolo[3,2-a]pyrimidine-3-carboxamide] |
| 137% | – | 0.782 µM | Cc1cc(Cl)n(Cc2cc(=O)n3c([C@@H]4C[C@H]4CO)c(C)sc3n2)n1 (relative stereo) [Example 15.4, 7-((5-chloro-3-methyl-1H-pyrazol-1-yl)methyl)-3-(trans-2-(hydroxymethyl)cyclopropyl)-2-methyl-5H-thiazolo[3,2-a]pyrimidin-5-one] |
| 61.6% | – | – | CCNC(=O)c1c(C)sc2nc(Cc3cc(C#N)ccc3C(F)(F)F)cc(=O)n12 [Example 21.40, 7-(5-cyano-2-(trifluoromethyl)benzyl)-N-ethyl-2-methyl-5-oxo-5H-thiazolo[3,2-a]pyrimidine-3-carboxamide] |
| – | 0.0411 µM | – | N#CC1CC1c1c(C(F)(F)F)sc2nc(Cn3nc(C(F)(F)F)cc3Cl)cc(=O)n12 (stereo not drawn) [compound 144, 2-[7-[[5-chloro-3-(trifluoromethyl)pyrazol-1-yl]methyl]-5-oxo-2-(trifluoromethyl)thiazolo[3,2-a]pyrimidin-3-yl]cyclopropanecarbonitrile] |
| – | 4.74 µM | – | COc1sc2nc(Cn3nc(C(F)(F)F)cc3Cl)cc(=O)n2c1Cl [compound 217, 3-chloro-7-[[5-chloro-3-(trifluoromethyl)pyrazol-1-yl]methyl]-2-methoxy-thiazolo[3,2-a]pyrimidin-5-one] |
